{
  "source": "patent US20240228500A1",
  "about": "“THERAPEUTIC CONJUGATES” (TOTUS MEDICINES INC., priority 2021, published 2024)",
  "data": [
    {"test_system": "NanoLuc fused to the biological target", "assay": "NanoBRET binding assay of ARCS in transfected HEK293 cells with washout", "design": "species or system human", "conditions": "HEK293 cells transiently transfected with NanoLuc fusion DNA, compound incubated overnight, cells washed 5x in PBS, tracer added", "experimental": "Human embryonic kidney 293-H (HEK 293, Gibco 293-H, #11631017) cell lines were maintained in Dulbecco's Modified Eagle Medium, high glucose, pyruvate (DMEM, Gibco, #11995065) supplemented with 10% fetal bovine serum (FBS, Gibco, #10082147) and 1× penicillin-streptomycin (100× solution, Gibco, #15140148) at 37° C. and 5% CO2 in a water-saturated incubator. Cells were trypsinized using 0.05% or 0.25% Trypsin-EDTA solution (Trypsin-EDTA, phenol red, Gibco, #25200056 (0.25%) or #25300054). Opti-MEM media supplemented with 10% fetal bovine serum (Opti-MEM I reduced serum media, no phenol red, Gibco, #11058021) was used for culturing cells overnight for NanoBRET readout experiments.\nHEK293 cells were then cultivated appropriately prior to assay. The medium from cell flask was removed via aspiration, washed 1× with PBS followed by aspiration, trypsinized, and cells were allowed to dissociate from the flask. Trypsin is neutralized using growth medium and cells were pelleted via centrifugation at 200×g for 5 minutes. The medium was aspirated and the cells were resuspended into a single cell suspension using Opti-MEM I supplemented with 10% FBS. The cell density was adjusted to 2×10^5/mL in Opti-MEM I supplemented with 10% FBS in a sterile, conical tube. The cells were transfected and aliquoted directly in a 96-well plate for the NanoBRET assay the next day, and therefore, the cells were cultured overnight in Opti-MEM. The cells were also transfected in bulk and dispensed into a 96-well plate to allow cells to adhere to the plate overnight, thereby enabling washout studies.\nThe lipid:DNA complexes were then prepared as follows: A 10 μg/mL solution of DNA was prepared in Opti-MEM without serum. This solution contains the following ratios of carrier DNA and DNA encoding NanoLuc fused to the biological target. Serial dilution steps may be warranted to accurately dilute the NanoLuc fusion DNA. Added, in order, were the following reagents to a sterile polystyrene test tube: 1 mL of Opti-MEM without phenol red; 9.0 μg/mL of carrier DNA; 1.0 μg/mL of NanoLuc fusion DNA (for some targets, the amount is less). The reagents were mixed thoroughly.\n[…] was added into each mL of DNA mixture to form lipid:DNA complex. […] It was mixed by pipetting up and down 5-10 times and incubated at room temperature for 20 minutes to allow complexes to form. 1 part (e.g. 1 mL) of lipid:DNA complex was mixed with 20 parts (e.g. 20 mL) of HEK293 cells in suspension at 2×10^5/mL and mixed gently by pipetting up and down 5 times in a sterile, conical tube. Larger or smaller bulk transfections were scaled accordingly, using this ratio. 100 μL cells+lipid:DNA complex was dispensed into a sterile, tissue-culture treated 96-well plate (20,000 cells/well), and incubated at least 16 hours to allow expression. The cells were incubated in a 37° C.+5% CO2 incubator for >16 hrs. A serially diluted inhibitor (i.e. ARCS) or test compound was prepared at 100× final concentration in 100% DMSO. The serially diluted inhibitor stock was prepared in PCR plates. 1 μL per well of 100× serially diluted inhibitor/test compound was added to the cells in 96-well plates that have been transiently transfected overnight and mixed by tapping the plate by hand. The plate was incubated at 37° C.+5% CO2 incubator overnight. A 1× solution of substrate mix (500× stock) and appropriate concentration of tracer was prepared in Opti-Mem. The cells were washed by setting a plate washer to the 96 well plate 5× in PBS pH 7.4 by adding 200 μL PBS each time. The cells were then incubated at 37° C. for 2 hours. 100 μL of the 1× Substrate-Tracer solution was added and the 96 well plate was gently tapped to mix. The plate on plate reader is read every hour for the next 6 hours.", "values": [
      {"smiles": "C=CC(=O)N[C@H](C)C(=O)N1CCN(Cc2cc3c(N4CCOCC4)nc(-c4cnc(NC(=O)OC)cc4C(F)(F)F)nn3c2)CC1", "note": "[Compound 1-313]", "Binding (Percent inhibition)": "++++ (++++ >80%)"},
      {"smiles": "C=CC(=O)N1CCC[C@H]1C(=O)N1CCN(Cc2cc3c(N4CCOCC4)nc(-c4cnc(NC(=O)OC)cc4C(F)(F)F)nn3c2)CC1", "note": "[Compound 1-309]", "Binding (Percent inhibition)": "++++ (++++ >80%)"},
      {"smiles": "COC(=O)Nc1cc(C(F)(F)F)c(-c2nc(N3CCOCC3)c3cc(CN4CCN(C(=O)CNC(=O)/C=C/CN5CCOCC5)CC4)cn3n2)cn1", "note": "[Compound 1-202]", "Binding (Percent inhibition)": "++++ (++++ >80%)"},
      {"smiles": "COC(=O)Nc1cc(C(F)(F)F)c(-c2nc(N3CCOCC3)c3cc(CN4CCN(C(=O)CNC(=O)/C=C/CN5CC(F)(F)C5)CC4)cn3n2)cn1", "note": "[Compound 1-204]", "Binding (Percent inhibition)": "++++ (++++ >80%)"},
      {"smiles": "C#CCCC(=O)Nc1ccc(-c2nc(N3CCOCC3)c3cc(CN4CCN(C(=O)CNC(=O)C=C)CC4)cn3n2)cc1", "note": "[Compound 1-215]", "Binding (Percent inhibition)": "+ (+ <20%)"},
      {"smiles": "COC(=O)Nc1cc(C(F)(F)F)c(-c2nc(N3CCOCC3)c3cc(CN4CCN(C(=O)CNC(=O)/C=C/CF)CC4)cn3n2)cn1", "note": "[Compound 1-206]", "Binding (Percent inhibition)": "+ (+ <20%)"},
      {"smiles": "C=CC(=O)NCC(=O)N1CC2(CN(Cc3cc4c(N5CCOCC5)nc(-c5cnc(NC(=O)OC)cc5C(F)(F)F)nn4c3)C2)C1", "note": "[Compound 1-223]", "Binding (Percent inhibition)": "++ (++ 20-50%)"},
      {"smiles": "C=C(F)C(=O)NCC(=O)N1CCN(Cc2cc3c(N4CCOCC4)nc(-c4cnc(NC(=O)OC)cc4C(F)(F)F)nn3c2)CC1", "note": "[Compound 1-212]", "Binding (Percent inhibition)": "++++ (++++ >80%)"},
      {"smiles": "COC(=O)Nc1cc(C(F)(F)F)c(-c2nc(N3CCOCC3)c3cc(CN4CCN(C(=O)CNC(=O)/C=C/CN5CC6(COC6)C5)CC4)cn3n2)cn1", "note": "[Compound 1-213]", "Binding (Percent inhibition)": "+ (+ <20%)"},
      {"smiles": "C=CC(=O)Nc1cccc(C(=O)N2CCN(Cc3cc4c(N5CCOCC5)nc(-c5cnc(NC(=O)OC)cc5C(F)(F)F)nn4c3)CC2)c1", "note": "[Compound 1-306]", "Binding (Percent inhibition)": "++ (++ 20-50%)"},
      {"smiles": "COC(=O)Nc1cc(C(F)(F)F)c(-c2nc(N3CCOCC3)c3cc(CN4CCN(C(=O)CNC(=O)/C=C/CN5CCCCC5)CC4)cn3n2)cn1", "note": "[Compound 1-217]", "Binding (Percent inhibition)": "++ (++ 20-50%)"},
      {"smiles": "C=C(OC)C(=O)NCC(=O)N1CCN(Cc2cc3c(N4CCOCC4)nc(-c4cnc(NC(=O)OC)cc4C(F)(F)F)nn3c2)CC1", "note": "[Compound 1-314]", "Binding (Percent inhibition)": "++++ (++++ >80%)"},
      {"smiles": "COC(=O)Nc1cc(C(F)(F)F)c(-c2nc(N3CCOCC3)c3cc(CN4CCN(C(=O)CNC(C)=O)CC4)cn3n2)cn1", "note": "[Compound 1-214]", "Binding (Percent inhibition)": "++++ (++++ >80%)"},
      {"smiles": "C=CC(=O)N[C@@H](C)C(=O)N1CCN(Cc2cc3c(N4CCOCC4)nc(-c4cnc(NC(=O)OC)cc4C(F)(F)F)nn3c2)CC1", "note": "[Compound 1-315]", "Binding (Percent inhibition)": "++++ (++++ >80%)"},
      {"smiles": "COC(=O)Nc1cc(C(F)(F)F)c(-c2nc(N3CCOCC3)c3cc(CN4CCN(C(=O)CNC(=O)/C=C/CN5CCN(C)CC5)CC4)cn3n2)cn1", "note": "[Compound 1-203]", "Binding (Percent inhibition)": "++ (++ 20-50%)"},
      {"smiles": "C=CC(=O)N(C)c1cccc(C(=O)N2CCN(Cc3cc4c(N5CCOCC5)nc(-c5cnc(NC(=O)OC)cc5C(F)(F)F)nn4c3)CC2)c1", "note": "[Compound 1-312]", "Binding (Percent inhibition)": "++ (++ 20-50%)"},
      {"smiles": "C=CC(=O)N1CCC[C@@H]1C(=O)N1CCN(Cc2cc3c(N4CCOCC4)nc(-c4cnc(NC(=O)OC)cc4C(F)(F)F)nn3c2)CC1", "note": "[Compound 1-308]", "Binding (Percent inhibition)": "++++ (++++ >80%)"},
      {"smiles": "C=CC(=O)N1CCC(C(=O)N2CCN(Cc3cc4c(N5CCOCC5)nc(-c5cnc(NC(=O)OC)cc5C(F)(F)F)nn4c3)CC2)CC1", "note": "[Compound 1-304]", "Binding (Percent inhibition)": "++++ (++++ >80%)"},
      {"smiles": "C=C(C)C(=O)NCC(=O)N1CCN(Cc2cc3c(N4CCOCC4)nc(-c4cnc(NC(=O)OC)cc4C(F)(F)F)nn3c2)CC1", "note": "[Compound 1-201]", "Binding (Percent inhibition)": "++++ (++++ >80%)"}
    ]}
  ]
}
